target: T1, PAN domain endonuclease (Influenza A virus, UniProt C3W5S0); assay: Endonuclease inhibition assay (FRET, FAM/MGBNFQ TaqMan-like probe cleavage by PAN); type: biochemical, influenza A (2009 pandemic H1N1 virus); conditions: 25 nM endonuclease, 50 nM probe, 37 degrees Celsius, fluorescence ex 488 nm / em 518 nm
T1 construct: The PAN domain of 2009 pandemic H1N1 virus polymerase (residues 1-204) has now been crystallized
Excerpt: A TaqMan-like oligonucleotide was used containing a 6-carboxy-fluorescein (FAM) fluorophore at the 5′-end followed by 19 nucleotides and a minor groove binding non-fluorescent quencher (MGBNFQ, Applied Biosystems) at the 3′-end. When excited by light at a wavelength of 488 nm, MGBNFQ quenches the fluorescence of FAM via fluorescence resonance energy transfer. If the endonuclease cleaves the oligonucleotide, the quencher is no longer coupled to the fluorophore, and therefore, FAM fluoresces. This assay can be performed in a high-throughput (e.g. 96 well plate) format. The assay can be used to evaluate the inhibitory characteristics of compounds that are found to bind PAN and to screen libraries of drug-like compounds. The assay uses the probe 6FAM-[…]-MGBNFQ (SEQ ID NO: 1)
The assay can be performed in a 40 μl reaction volume with 50 mM Tris pH 7.5, 50 mM NaCl, 1 mM MgSO4, 0.5 mM MnSO4, 1 mM DTT, 0.75 mM CHAPS, 50 nM probe, and 25 nM endonuclease.
The reaction mixture is set up as a master mix with the buffer, probe, and protein on ice. The inhibitor is then added to a maximum DMSO concentration of 2.5% (v/v) and serial dilutions are made on ice. Varioskan Fluorometer (Thermo Scientific), set to an excitation of 488 nm and emission of 518 nm, is used to measure the fluorescence of the samples at 37 degrees Celsius. Fluorescence is measured at various time points (5, 120, and 240 minutes) during the 37 degrees Celsius incubation. Activity/inhibition is calculated based on the change in fluorescence over time using Prism Graphpad non-linear regression analysis.

SMILES | IC50 [nM]
N#Cc1ccc(-c2cc(O)c(O)c([N+](=O)[O-])c2-c2ccc(C#N)cc2)cc1 [Example 4] | 194
Oc1cc(-c2ccc(F)cc2)c(-c2ccc(F)cc2)cc1O [Example 1] | 390
Oc1cc(-c2ccc(-c3nnn[nH]3)cc2)c(-c2ccc(-c3nnn[nH]3)cc2)cc1O [Example 7] | 847
N#Cc1ccc(-c2cc(O)c(O)cc2-c2ccc(F)cc2)cc1 [Example 5, 4″-fluoro-4′,5′-dihydroxy-[1,1′:2′,1″-terphenyl]-4-carbonitrile] | 290
N#Cc1ccc(-c2cc(O)c(O)cc2-c2ccc(C#N)cc2)cc1 [Example 3, 4′,5′-dihydroxy-[1,1′:2′,1″-terphenyl]-4,4″-dicarbonitrile] | 395
O=[N+]([O-])c1c(O)c(O)cc(-c2ccc(F)cc2)c1-c1ccc(F)cc1 [Example 2] | 434
Oc1cc(-c2ccc(F)cc2)c(-c2ccc(-c3nnn[nH]3)cc2)cc1O [Example 6] | 425
